For one test, the target named is T1, XIAP BIR-3 (Homo sapiens, UniProt P98170).
T1 construct: 40 nM of the respective IAP BIR3
Description: Fluorescence polarization binding affinity to XIAP BIR-3 (competition with AbuRPF-K(5-Fam)-NH2). The settings on record: 5 nM labeled peptide, 40 nM BIR3, 15 min at RT, pH 7.5; reported as ranges. In short, it runs like this:
(§1)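 Test peptides at varied concentrations competed with 5 nM fluorescent Smac-mimetic tracer for 40 nM BIR3 domain, 15 min at RT in 0.1M potassium phosphate pH 7.5 with […] bovine g-globulin. Polarization (mP) read at 485/520 nm; KD reported in bins (A=<0.1 μM, B=0.1–1 μM, C>1–10 μM, D=>10 μM).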

A further test deals with cIAP-1 BIR-3 (Homo sapiens, UniProt Q13490). Description: Fluorescence polarization binding affinity to cIAP-1 BIR-3 (competition with AbuRPF-K(5-Fam)-NH2). Particulars: 5 nM labeled peptide, 40 nM BIR3, 15 min at RT, pH 7.5; reported as ranges; read-out: KD (c-IAP-1 BIR3). In short, it runs like this:
as §1

Another test has as its system SK-OV-3 cells. Description: Growth inhibition of ovarian cancer cell line SK-OV-3 (MTT assay, cell survival). Type of test: cell-based. Particulars: Homo sapiens, drug concentration that results in 50% cell survival, 72 hrs incubation, reported as ranges. The method, boiled down: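 After overnight seeding in McCoy's medium with 10% FBS, SK-OV-3 cells were exposed to compound at 0.003-10 μM for 72 hrs at 37° C. MTT was then added for 3 h, with DMSO solubilization and OD read at 535 nm. CC50 is the concentration giving 50% survival relative to untreated control, reported as ranges.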

Each structure is given as a SMILES string.

Sequence of cIAP-1 BIR-3 (Q13490 266-352 limits assumed): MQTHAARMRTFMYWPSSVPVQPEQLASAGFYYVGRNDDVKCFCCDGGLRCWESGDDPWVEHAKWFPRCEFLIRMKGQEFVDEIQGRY
T1 sequence (P98170 241-356 limits assumed): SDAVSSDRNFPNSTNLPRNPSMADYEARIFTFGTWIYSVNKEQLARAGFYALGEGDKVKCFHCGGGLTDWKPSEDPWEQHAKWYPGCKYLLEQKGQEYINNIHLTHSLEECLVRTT

Regarding `CN[C@@H](C)C(=O)N[C@H](C(=O)N1CC[C@@H]2[C@H]1[C@@H](c1c[nH]c3ccc(F)cc13)CN2C(C)=O)[C@@H](C)OC` [Example 71, N-{1-[4-Acetyl-6-(5-fluoro-1H-indol-3-yl)-hexahydro-pyrrolo[3,2-b]pyrrole-1-carbonyl]-2-methoxy-propyl}-2-methylamino-propionamide], the Kd at XIAP BIR-3 and at cIAP-1 BIR-3 was < 100 nM each time. For the same compound, in the test on SK-OV-3 cells, the CC50 is < 100 nM.

As to `CN[C@@H](C)C(=O)N[C@@H](COC)C(=O)N1CC[C@@H]2[C@H]1[C@@H](c1c[nH]c3ccc(F)cc13)CN2C(C)=O` [Example 72, N-{2-[4-Acetyl-6-(5-fluoro-1H-indol-3-yl)-hexahydro-pyrrolo[3,2-b]pyrrol-1-yl]-1-methoxymethyl-2-oxo-ethyl}-2-methylamino-propionamide], the Kd on XIAP BIR-3 and at cIAP-1 BIR-3 was < 100 nM throughout. In the test on SK-OV-3 cells, this compound had a CC50 of 1000 to 10000 nM.

On to `CN[C@@H](C)C(=O)N[C@@H](CO)C(=O)N1CC[C@@H]2[C@H]1[C@@H](c1c[nH]c3ccc(F)cc13)CN2C(C)=O` [Example 73, N-{2-[4-Acetyl-6-(5-fluoro-1H-indol-3-yl)-hexahydro-pyrrolo[3,2-b]pyrrol-1-yl]-1-hydroxymethyl-2-oxo-ethyl}-2-methylamino-propionamide], for which the dissociation constant Kd on XIAP BIR-3 and at cIAP-1 BIR-3 was < 100 nM in each case. For the same compound, the CC50 in the test on SK-OV-3 cells lay in the range of 1000 to 10000 nM.

For `CN[C@@H](C)C(=O)N[C@H](C(=O)N1CC[C@@H]2[C@H]1[C@@H](c1c[nH]c3ccc(F)cc13)CN2C(C)=O)[C@@H](C)O` [Example 74, N-{1-[4-Acetyl-6-(5-fluoro-1H-indol-3-yl)-hexahydro-pyrrolo[3,2-b]pyrrole-1-carbonyl]-2-hydroxy-propyl}-2-methylamino-propionamide], the Kd at XIAP BIR-3 and at cIAP-1 BIR-3 was < 100 nM each time. The compound also came in with a CC50 in the test with SK-OV-3 cells of 100 to 1000 nM.

On to `CN[C@@H](C)C(=O)N[C@H](C(=O)N1CC[C@@H]2[C@H]1[C@@H](c1c[nH]c3cc(F)ccc13)CN2c1ncccn1)C1CCCCC1` [Example 75, N-{1-Cyclohexyl-2-[6-(6-fluoro-1H-indol-3-yl)-4-pyrimidin-2-yl-hexahydro-pyrrolo[3,2-b]pyrrol-1-yl]-2-oxo-ethyl}-2-methylamino-propionamide], for which the Kd on XIAP BIR-3 and on cIAP-1 BIR-3 was < 100 nM each time. Besides, the CC50 in the test with SK-OV-3 cells was < 100 nM.

On to `CN[C@@H](C)C(=O)N[C@H](C(=O)N1CC[C@@H]2[C@H]1[C@@H](c1c[nH]c3cc(F)ccc13)CN2c1nccc(Cl)n1)C1CCCCC1` [Example 76, N-{2-[4-(4-Chloro-pyrimidin-2-yl)-6-(6-fluoro-1H-indol-3-yl)-hexahydro-pyrrolo[3,2-b]pyrrol-1-yl]-1-cyclohexyl-2-oxo-ethyl}-2-methylamino-propionamide], for which the Kd at XIAP BIR-3 and at cIAP-1 BIR-3 was < 100 nM throughout. In addition, the CC50 with SK-OV-3 cells was < 100 nM.

As for `CN[C@@H](C)C(=O)N[C@H](C(=O)N1CC[C@@H]2[C@H]1[C@@H](c1c[nH]c3cc(F)ccc13)CN2c1ncccn1)C(C)C` [Example 77, N-{1-[6-(6-Fluoro-1H-indol-3-yl)-4-pyrimidin-2-yl-hexahydro-pyrrolo[3,2-b]pyrrole-1-carbonyl]-2-methyl-propyl}-2-methylamino-propionamide], the Kd on XIAP BIR-3 and on cIAP-1 BIR-3 was < 100 nM throughout. The CC50 with SK-OV-3 cells is < 100 nM.

Regarding `CC[C@H](NC(=O)[C@H](C)NC)C(=O)N1CC[C@@H]2[C@H]1[C@@H](c1c[nH]c3cc(F)ccc13)CN2c1ncccn1` [Example 78, N-{1-[6-(6-Fluoro-1H-indol-3-yl)-4-pyrimidin-2-yl-hexahydro-pyrrolo[3,2-b]pyrrole-1-carbonyl]-propyl}-2-methylamino-propionamide], the values for the Kd at XIAP BIR-3 and on cIAP-1 BIR-3 were 100 to 1000 nM and < 100 nM, respectively. Also, the CC50 in the test on SK-OV-3 cells is < 100 nM.

As for `CN[C@@H](C)C(=O)N[C@H](C(=O)N1CC[C@@H]2[C@H]1[C@@H](c1c[nH]c3cc(F)ccc13)CN2c1ncccn1)C(C)(C)C` [Example 79, N-{1-[6-(6-Fluoro-1H-indol-3-yl)-4-pyrimidin-2-yl-hexahydro-pyrrolo[3,2-b]pyrrole-1-carbonyl]-2,2-dimethyl-propyl}-2-methylamino-propionamide], the Kd on XIAP BIR-3 and at cIAP-1 BIR-3 was < 100 nM in each case. In the test with SK-OV-3 cells, the CC50 was < 100 nM.

On to `CN[C@@H](C)C(=O)N[C@@H](CO)C(=O)N1CC[C@@H]2[C@H]1[C@@H](c1c[nH]c3cc(F)ccc13)CN2c1ncccn1` [Example 80, N-{2-[6-(6-Fluoro-1H-indol-3-yl)-4-pyrimidin-2-yl-hexahydro-pyrrolo[3,2-b]pyrrol-1-yl]-1-hydroxymethyl-2-oxo-ethyl}-2-methylamino-propionamide], for which the Kd at XIAP BIR-3 and on cIAP-1 BIR-3 was < 100 nM in each case. Also, in the test with SK-OV-3 cells, the CC50 was < 100 nM.

As for `CN[C@@H](C)C(=O)N[C@@H](COC)C(=O)N1CC[C@@H]2[C@H]1[C@@H](c1c[nH]c3cc(F)ccc13)CN2c1ncccn1` [Example 81, N-{2-[6-(6-Fluoro-1H-indol-3-yl)-4-pyrimidin-2-yl-hexahydro-pyrrolo[3,2-b]pyrrol-1-yl]-1-methoxymethyl-2-oxo-ethyl}-2-methylamino-propionamide], the Kd at XIAP BIR-3 and on cIAP-1 BIR-3 was < 100 nM throughout. In addition, the CC50 in the test with SK-OV-3 cells is < 100 nM.

On to `CN[C@@H](C)C(=O)N[C@H](C(=O)N1CC[C@@H]2[C@H]1[C@@H](c1c[nH]c3cc(F)ccc13)CN2c1ncccn1)[C@@H](C)O` [Example 82, N-{1-[6-(6-Fluoro-1H-indol-3-yl)-4-pyrimidin-2-yl-hexahydro-pyrrolo[3,2-b]pyrrole-1-carbonyl]-2-hydroxy-propyl}-2-methylamino-propionamide], for which the Kd on XIAP BIR-3 and at cIAP-1 BIR-3 was < 100 nM throughout. Also, the CC50 in the test with SK-OV-3 cells was < 100 nM.

As for `CN[C@@H](C)C(=O)N[C@H](C(=O)N1CC[C@@H]2[C@H]1[C@@H](c1c[nH]c3cc(F)ccc13)CN2c1ncccn1)[C@@H](C)OC` [Example 83, N-{1-[6-(6-Fluoro-1H-indol-3-yl)-4-pyrimidin-2-yl-hexahydro-pyrrolo[3,2-b]pyrrole-1-carbonyl]-2-methoxy-propyl}-2-methylamino-propionamide], the Kd at XIAP BIR-3 and at cIAP-1 BIR-3 was < 100 nM each time. Also, the CC50 in the test on SK-OV-3 cells is < 100 nM.

Take `CN[C@@H](C)C(=O)N[C@H](C(=O)N1C[C@@H](O)[C@@H]2[C@H]1[C@@H](c1c[nH]c3cc(F)ccc13)CN2C(=O)OCc1ccccc1)C1CCCCC1` [Example 84, 4-[2-Cyclohexyl-2-(2-methylamino-propionylamino)-acetyl]-3S-(6-fluoro-1H-indol-3-yl)-6-hydroxy-hexahydro-pyrrolo[3,2-b]pyrrole-1-carboxylic acid benzyl ester]: the Kd on XIAP BIR-3 and at cIAP-1 BIR-3 was < 100 nM each time. Also, the CC50 in the test with SK-OV-3 cells is < 100 nM.

For the compound `CN[C@@H](C)C(=O)N[C@H](C(=O)N1C[C@@H](O)[C@H]2NC[C@H](c3c[nH]c4cc(F)ccc34)[C@H]21)C1CCCCC1` [Example 85], the Kd on XIAP BIR-3 was 100 to 1000 nM; on cIAP-1 BIR-3, < 100 nM. The same compound had a CC50 in the test on SK-OV-3 cells of 100 to 1000 nM.

(Values after US8399683B2 (TetraLogic Pharmaceuticals, priority 2008, dated 2013).)
